Each compound was assayed on U87MG cells (assay: Proliferation assay (MTT-based) on U87MG tumour cells). Details: Homo sapiens, U-87 MG, 96 h, 4 days of incubation, negative log value of the IC50-value, read-out: cell proliferation pIC50 (converted).
Description: U87MG cells are human glioblastoma cells with wild type p53. In this cell line MDM2 tightly controls p53 expression.
Cellular activity of the compounds of formula (I) was determined on U87MG tumour cells using a colorimetric assay for cell toxicity or survival (see example C.2).
All compounds tested were dissolved in DMSO and further dilutions were made in culture medium. Final DMSO concentrations never exceeded 0.1% (v/v) in cell proliferation assays. Controls contained U87MG cells and DMSO without compound and blanks contained DMSO but no cells.
U87MG cells were seeded in 96-well cell culture plates at 3000 cells/well/100 μl. 24 hours later, medium was changed and compound and/or solvent were added to a final volume of 200 μl. Following 4 days of incubation, medium was replaced by 200 μl fresh medium and cell growth was assessed using a MTT-based assay. Therefore, 25 μl of the MTT solution (0.5% MTT research grade from Serva in phosphate-buffered saline) was added to each well and the cells were further incubated for 2 hours at 37° C. The medium was then carefully aspirated and the blue MTT-formazan product was dissolved by adding to each well 25 μl 0.1 M glycin and 100 μl DMSO. The plates were shaken for another 10 min on a micro plate shaker before reading absorbance at 540 nm by a Biorad micro plate reader.
Within an experiment, the results for each experimental condition are the mean of 3 replicate wells. For initial screening purposes, compounds were tested at a single fixed concentration of 10^−5 M. For active compounds, the experiments were repeated to establish full concentration-response curves. For each experiment, controls (containing no drug) and a blank incubation (containing no cells or drugs) were run in parallel. The blank value was subtracted from all control and sample values. For each sample, the mean value for cell growth (in absorbance units) was expressed as a percentage of the mean value for cell growth of the control. When appropriate, IC50-values (concentration of the drug, needed to reduce cell growth to 50% of the control) were computed using probit analysis for graded data (Finney, D. J., Probit Analyses, 2nd Ed. Chapter 10, Graded Responses, Cambridge University Press, Cambridge 1962). Herein the effects of test compounds are expressed as pIC50 (the negative log value of the IC50-value) (see table F-2).
Work on O=C(NCCNCc1cc(Nc2ccc(NCCc3c[nH]c4ccccc34)cc2)ccn1)OCc1ccccc1 [Compound 92] yielded an IC50 of 3.16 µM. With NCCNCc1cc(Nc2ccc(NCCc3c[nH]c4ccccc34)cc2)ccn1 [Compound 93] the IC50 was > 10 µM. In the case of c1ccc2c(CCNc3ccc(Nc4ccnc(CNCCN5CCNCC5)c4)cc3)c[nH]c2c1 [Compound 95], the IC50 is reported as 7.94 µM. For COC(=O)CCNCc1cc(Nc2ccc(NCCc3c[nH]c4ccccc34)cc2)ccn1 [Compound 96], the IC50 was > 10 µM. In the case of O=C(O)CCNCc1cc(Nc2ccc(NCCc3c[nH]c4ccccc34)cc2)ccn1 [Compound 97], the IC50 is reported as > 10 µM. COC(=O)COCc1cc(Nc2ccc(NCCc3c[nH]c4ccccc34)cc2)ccn1 [Compound 98] gave an IC50 of 3.98 µM. With OCCOCc1cc(Nc2ccc(NCCc3c[nH]c4ccccc34)cc2)ccn1 [Compound 99] the IC50 was 2.51 µM. Work on CC(NCCCCO)c1cc(Nc2ccc(NCCc3c[nH]c4ccccc34)cc2)ccn1 (stereo not drawn) [Compound 100] yielded an IC50 of 3.98 µM. For c1ccc(CC(CNc2ccc(Nc3ccncc3)cc2)c2c[nH]c3ccccc23)cc1 (stereo not drawn) [Compound 101], the IC50 was 2.51 µM. CC(C)(C)OC(=O)N(CCc1cn(C(=O)OC(C)(C)C)c2ccccc12)c1ccc(Nc2ccnc(Cl)c2)cc1 [Compound 102] was tested, and the IC50 was > 10 µM. For Clc1cc(Nc2ccc(NCCc3c[nH]c4ccccc34)cc2)ccn1 [Compound 103], the IC50 was 3.98 µM. With CC(O)c1cc(Nc2ccc(NCCc3c[nH]c4ccccc34)cc2)ccn1 (stereo not drawn) [Compound 104] the IC50 was 3.16 µM. Work on CC(=O)c1cc(Nc2ccc(NCCc3c[nH]c4ccccc34)cc2)ccn1 [Compound 105] yielded an IC50 of 7.94 µM. In the case of Cc1noc(-c2cc(Nc3ccc(NCCc4c[nH]c5ccccc45)cc3)ccn2)n1 [Compound 106], the IC50 is reported as 1.58 µM. With COC(=O)c1cc(Nc2ccc(NCCc3c[nH]c4ccccc34)cc2)cc(C(=O)OC)n1 [Compound 109] the IC50 was > 10 µM. OC1CCc2c(Nc3ccc(NCCc4c[nH]c5ccccc45)cc3)ccnc21 (stereo not drawn) [Compound 110] was tested, and the IC50 was 0.01 µM. With O=C(C(Cc1c[nH]c2ccccc12)Nc1ccc(Nc2ccncc2)cc1)N1CCN(CCO)CC1 (stereo not drawn) [Compound 114] the IC50 was > 10 µM. In the case of O=C(C(Cc1c[nH]c2ccccc12)Nc1ccc(Nc2ccncc2)cc1)N1CCN(CCOCCO)CC1 (stereo not drawn) [Compound 116], the IC50 is reported as > 10 µM. For O=C(NCCCCCO)C(Cc1c[nH]c2ccccc12)Nc1ccc(Nc2ccncc2)cc1 (stereo not drawn) [Compound 118], the IC50 was > 10 µM. In the case of c1ccc2c(CCNc3ccc(Nc4ccnnc4)cc3)c[nH]c2c1 [Compound 119], the IC50 is reported as > 10 µM. c1ccc2c(CNc3ccc(NCCc4c[nH]c5ccccc45)cc3)ccnc2c1 [Compound 120] was tested, and the IC50 was 5.01 µM. In the case of c1cncc(CNc2ccc(NCCc3c[nH]c4ccccc34)cc2)c1 [Compound 121], the IC50 is reported as > 10 µM. Work on OCc1cnccc1Nc1ccc(NCCc2c[nH]c3ccccc23)cc1 [Compound 123] yielded an IC50 of 5.01 µM. For COC(=O)c1cnccc1Nc1ccc(NCCc2c[nH]c3ccccc23)cc1 [Compound 124], the IC50 was 5.01 µM. Compound Cc1cnccc1Cc1cnccc1Nc1ccc(NCCc2c[nH]c3ccccc23)cc1 [Compound 125] has an IC50 of 3.98 µM. CCOC(=O)/C=C/c1cnccc1Nc1ccc(NCCc2c[nH]c3ccccc23)cc1 [Compound 126] was tested, and the IC50 was > 10 µM. CCC(O)c1cnccc1Nc1ccc(NCCc2c[nH]c3ccccc23)cc1 (stereo not drawn) [Compound 127] gave an IC50 of 7.94 µM. For CCC(O)(CC)c1cc(Nc2ccc(NCCc3c[nH]c4ccccc34)cc2)ccn1 [Compound 128], the IC50 was 3.16 µM. In the case of CS(=O)(=O)NCc1cc(Nc2ccc(NCCc3c[nH]c4ccccc34)cc2)ccn1 [Compound 129], the IC50 is reported as 2 µM. With O=C(NCc1cc(Nc2ccc(NCCc3c[nH]c4ccccc34)cc2)ccn1)C1CC1 [Compound 130] the IC50 was 1.58 µM. O=C(CCc1ccccc1)NCc1cc(Nc2ccc(NCCc3c[nH]c4ccccc34)cc2)ccn1 [Compound 131] showed an IC50 of 2.51 µM. In the case of CCC(=O)NCc1cc(Nc2ccc(NCCc3c[nH]c4ccccc34)cc2)ccn1 [Compound 132], the IC50 is reported as > 10 µM. Work on CCOCc1cc(Nc2ccc(NCCc3c[nH]c4ccccc34)cc2)ccn1 [Compound 134] yielded an IC50 of 1.26 µM. For OCc1cc(Nc2ccc(NCCc3c[nH]c4ccccc34)cc2)cc(CO)n1 [Compound 135], the IC50 was 1 µM. Compound OC(c1cc(Nc2ccc(NCCc3c[nH]c4ccccc34)cc2)ccn1)C1CC1 (stereo not drawn) [Compound 136] has an IC50 of 2 µM. Compound CC(C)C(O)c1cc(Nc2ccc(NCCc3c[nH]c4ccccc34)cc2)ccn1 (stereo not drawn) [Compound 137] has an IC50 of 3.16 µM. Work on CC(C)(C)C(O)c1cc(Nc2ccc(NCCc3c[nH]c4ccccc34)cc2)ccn1 (stereo not drawn) [Compound 138] yielded an IC50 of 1.58 µM. Compound CCOc1cc(Nc2ccnc(C(C)(C)O)c2)ccc1NCCc1c[nH]c2cc(OC)ccc12 [Compound 139] has an IC50 of 2 µM. CC(NCc1ccccc1)c1cc(Nc2ccc(NCCc3c[nH]c4ccccc34)cc2)ccn1 (stereo not drawn) [Compound 140] showed an IC50 of 2.51 µM. For CC(N)c1cc(Nc2ccc(NCCc3c[nH]c4ccccc34)cc2)ccn1 (stereo not drawn) [Compound 141], the IC50 was 3.98 µM. CNC(C)c1cc(Nc2ccc(NCCc3c[nH]c4ccccc34)cc2)ccn1 (stereo not drawn) [Compound 142] was tested, and the IC50 was 3.16 µM. Compound CCNC(C)c1cc(Nc2ccc(NCCc3c[nH]c4ccccc34)cc2)ccn1 (stereo not drawn) [Compound 143] has an IC50 of 3.16 µM. With CC(NCCN1CCOCC1)c1cc(Nc2ccc(NCCc3c[nH]c4ccccc34)cc2)ccn1 (stereo not drawn) [Compound 144] the IC50 was 3.16 µM. In the case of CC(NCCc1ccccc1)c1cc(Nc2ccc(NCCc3c[nH]c4ccccc34)cc2)ccn1 (stereo not drawn) [Compound 145], the IC50 is reported as 2.51 µM. Compound COC(=O)CCNC(C)c1cc(Nc2ccc(NCCc3c[nH]c4ccccc34)cc2)ccn1 (stereo not drawn) [Compound 146] has an IC50 of 7.94 µM. In the case of CC(NCCO)c1cc(Nc2ccc(NCCc3c[nH]c4ccccc34)cc2)ccn1 (stereo not drawn) [Compound 147], the IC50 is reported as 5.01 µM. Compound CC(NCCCc1ccccc1)c1cc(Nc2ccc(NCCc3c[nH]c4ccccc34)cc2)ccn1 (stereo not drawn) [Compound 148] has an IC50 of 3.16 µM. CCOC(C)c1cc(Nc2ccc(NCCc3c[nH]c4ccccc34)cc2)ccn1 (stereo not drawn) [Compound 149] gave an IC50 of 2 µM. For COC(C)c1cc(Nc2ccc(NCCc3c[nH]c4ccccc34)cc2)ccn1 (stereo not drawn) [Compound 150], the IC50 was 3.16 µM. With CC(=O)OCc1cc(Nc2ccc(NCCc3c[nH]c4ccccc34)cc2)ccn1 [Compound 151] the IC50 was > 10 µM. OCCNCc1cc(Nc2ccc(NCCc3c[nH]c4ccccc34)cc2)ccn1 [Compound 152] gave an IC50 of 10 µM. c1ccc2c(CCNc3ccc(Nc4ccnc(CNCCN5CCOCC5)c4)cc3)c[nH]c2c1 [Compound 153] was tested, and the IC50 was 2.51 µM. Compound CNCc1cc(Nc2ccc(NCCc3c[nH]c4ccccc34)cc2)ccn1 [Compound 154] has an IC50 of 3.16 µM. With CCNCc1cc(Nc2ccc(NCCc3c[nH]c4ccccc34)cc2)ccn1 [Compound 155] the IC50 was 2 µM. OCCCNCc1cc(Nc2ccc(NCCc3c[nH]c4ccccc34)cc2)ccn1 [Compound 156] gave an IC50 of 3.16 µM. For N#CCNCc1cc(Nc2ccc(NCCc3c[nH]c4ccccc34)cc2)ccn1 [Compound 157], the IC50 was 1.58 µM. CN(C)Cc1cc(Nc2ccc(NCCc3c[nH]c4ccccc34)cc2)ccn1 [Compound 158] was tested, and the IC50 was > 10 µM. c1ccc2c(CCNc3ccc(Nc4ccnc(CN5CCOCC5)c4)cc3)c[nH]c2c1 [Compound 159] was tested, and the IC50 was 3.16 µM. Work on CN1CCN(Cc2cc(Nc3ccc(NCCc4c[nH]c5ccccc45)cc3)ccn2)CC1 [Compound 160] yielded an IC50 of 0.398 µM. CCN(CC)Cc1cc(Nc2ccc(NCCc3c[nH]c4ccccc34)cc2)ccn1 [Compound 161] gave an IC50 of 1 µM. Work on N#CCCNCc1cc(Nc2ccc(NCCc3c[nH]c4ccccc34)cc2)ccn1 [Compound 162] yielded an IC50 of 3.16 µM. For c1ccc(CCNCc2cc(Nc3ccc(NCCc4c[nH]c5ccccc45)cc3)ccn2)cc1 [Compound 163], the IC50 was 3.16 µM. c1ccc(CCCNCc2cc(Nc3ccc(NCCc4c[nH]c5ccccc45)cc3)ccn2)cc1 [Compound 164] was tested, and the IC50 was 2.51 µM. Compound OCCCCNCc1cc(Nc2ccc(NCCc3c[nH]c4ccccc34)cc2)ccn1 [Compound 165] has an IC50 of 5.01 µM. In the case of c1ccc2c(CCNc3ccc(Nc4ccnc(CNCCCN5CCOCC5)c4)cc3)c[nH]c2c1 [Compound 166], the IC50 is reported as > 10 µM. c1ccc(COCc2cc(Nc3ccc(NCCc4c[nH]c5ccccc45)cc3)ccn2)cc1 [Compound 167] was tested, and the IC50 was 3.98 µM. c1ccc(CNCc2cc(Nc3ccc(NCCc4c[nH]c5ccccc45)cc3)ccn2)cc1 [Compound 168] was tested, and the IC50 was 2 µM. COCCOCc1cc(Nc2ccc(NCCc3c[nH]c4ccccc34)cc2)ccn1 [Compound 169] was tested, and the IC50 was 0.398 µM. c1ccc(CCCCNCc2cc(Nc3ccc(NCCc4c[nH]c5ccccc45)cc3)ccn2)cc1 [Compound 170] gave an IC50 of 3.16 µM. With c1ccc(CCCOCc2cc(Nc3ccc(NCCc4c[nH]c5ccccc45)cc3)ccn2)cc1 [Compound 171] the IC50 was > 10 µM. For COC(=O)CCOCc1cc(Nc2ccc(NCCc3c[nH]c4ccccc34)cc2)ccn1 [Compound 172], the IC50 was > 10 µM. O=c1cc(Nc2ccc(NCCc3c[nH]c4ccccc34)cc2)cc[nH]1 [Compound 173] was tested, and the IC50 was > 10 µM.

Reference: patent publication US8404683B2, “Inhibitors of the interaction between MDM2 and P53” (Janssen Pharmaceutical N.V., priority 2004, dated 2013)
